PubChem BioAssay (NCI)
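Five concentrations, 48 hours, 96-well plates. Definition used: TGI = concentration required for complete inhibition of growth.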

How the values were obtained:
Test in all cases: NCI tumour cell line growth inhibition, 48 h
NCI-H522 lung = tested on: NCI-H522 lung
HCT-116 colon = tested on: HCT-116 colon
HOP-62 NSCLC = tested on: HOP-62 NSCLC
OVCAR-4 ovarian = tested on: OVCAR-4 ovarian
OVCAR-5 ovarian = tested on: OVCAR-5 ovarian
HCT-15 colon = tested on: HCT-15 colon
SNB-78 CNS = tested on: SNB-78 CNS
HL-60(TB) leukemia = tested on: HL-60(TB) leukemia
RPMI-8226 leukemia = tested on: RPMI-8226 leukemia
UACC-257 melanoma = tested on: UACC-257 melanoma
RXF 393 renal = tested on: RXF 393 renal
SK-MEL-28 melanoma = tested on: SK-MEL-28 melanoma
SNB-75 CNS = tested on: SNB-75 CNS
SNB-19 CNS = tested on: SNB-19 CNS
KM20L2 colon = tested on: KM20L2 colon
NCI-H23 lung = tested on: NCI-H23 lung
SF-268 CNS = tested on: SF-268 CNS
CCRF-CEM leukemia = tested on: CCRF-CEM leukemia
NCI/ADR-RES ovarian = tested on: NCI/ADR-RES ovarian
SN12K1 renal = tested on: SN12K1 renal
HOP-92 NSCLC = tested on: HOP-92 NSCLC
OVCAR-3 ovarian = tested on: OVCAR-3 ovarian
U251 CNS = tested on: U251 CNS
MALME-3M melanoma = tested on: MALME-3M melanoma
IGROV1 ovarian = tested on: IGROV1 ovarian
SF-295 CNS = tested on: SF-295 CNS
A498 renal = tested on: A498 renal
HT29 colon = tested on: HT29 colon
A549 NSCLC = tested on: A549 NSCLC
OVCAR-8 ovarian = tested on: OVCAR-8 ovarian
SW-620 colon = tested on: SW-620 colon
COLO 205 colon = tested on: COLO 205 colon
NCI-H460 lung = tested on: NCI-H460 lung
LOX IMVI melanoma = tested on: LOX IMVI melanoma
SK-MEL-5 melanoma = tested on: SK-MEL-5 melanoma
KM12 colon = tested on: KM12 colon
CAKI-1 renal = tested on: CAKI-1 renal
HOP-18 NSCLC = tested on: HOP-18 NSCLC
XF 498 CNS = tested on: XF 498 CNS
MCF7 breast = tested on: MCF7 breast
DMS 273 small cell lung = tested on: DMS 273 small cell lung
SF-539 CNS = tested on: SF-539 CNS
DLD-1 colon = tested on: DLD-1 colon
SK-OV-3 ovarian = tested on: SK-OV-3 ovarian
UO-31 renal = tested on: UO-31 renal
SN12C renal = tested on: SN12C renal
DMS 114 small cell lung = tested on: DMS 114 small cell lung
MOLT-4 leukemia = tested on: MOLT-4 leukemia
NCI-H226 lung = tested on: NCI-H226 lung
UACC-62 melanoma = tested on: UACC-62 melanoma
SK-MEL-2 melanoma = tested on: SK-MEL-2 melanoma
HCC-2998 colon = tested on: HCC-2998 colon
EKVX NSCLC = tested on: EKVX NSCLC

CN(C)CCN=C1c2ccccc2-c2c(=O)n(CCN(C)C)c(O)c3cccc1c23
TGI (NCI-H522 lung): 315 nM
TGI (HCT-116 colon): 432 nM
TGI (HOP-62 NSCLC): 4040 nM
TGI (OVCAR-4 ovarian): 154 nM
TGI (OVCAR-5 ovarian): 794 nM
TGI (HCT-15 colon): 245 nM
TGI (SNB-78 CNS): 1730 nM
TGI (HL-60(TB) leukemia): 592 nM
TGI (RPMI-8226 leukemia): 12900 nM
TGI (UACC-257 melanoma): 1250 nM
TGI (RXF 393 renal): 85 nM
TGI (SK-MEL-28 melanoma): 862 nM
TGI (SNB-75 CNS): 487 nM
TGI (SNB-19 CNS): 1730 nM
TGI (KM20L2 colon): 783 nM
TGI (NCI-H23 lung): 258 nM
TGI (SF-268 CNS): 578 nM
TGI (CCRF-CEM leukemia): 10500 nM
TGI (NCI/ADR-RES ovarian): 289 nM
TGI (SN12K1 renal): 851 nM
TGI (HOP-92 NSCLC): 563 nM
TGI (OVCAR-3 ovarian): 689 nM
TGI (U251 CNS): 752 nM
TGI (MALME-3M melanoma): 1600 nM
TGI (IGROV1 ovarian): 616 nM
TGI (SF-295 CNS): 605 nM
TGI (A498 renal): 2190 nM
TGI (HT29 colon): 257 nM
TGI (A549 NSCLC): 461 nM
TGI (OVCAR-8 ovarian): 433 nM
TGI (SW-620 colon): 493 nM
TGI (COLO 205 colon): 270 nM
TGI (NCI-H460 lung): 339 nM
TGI (LOX IMVI melanoma): 185 nM
TGI (SK-MEL-5 melanoma): 1950 nM
TGI (KM12 colon): 1250 nM
TGI (CAKI-1 renal): 2700 nM
TGI (HOP-18 NSCLC): 603 nM
TGI (XF 498 CNS): 922 nM
TGI (MCF7 breast): 944 nM
TGI (DMS 273 small cell lung): 508 nM
TGI (SF-539 CNS): 1820 nM
TGI (DLD-1 colon): 217 nM
TGI (SK-OV-3 ovarian): 1400 nM
TGI (UO-31 renal): 3970 nM
TGI (SN12C renal): 674 nM
TGI (DMS 114 small cell lung): 499 nM
TGI (MOLT-4 leukemia): 28000 nM
TGI (NCI-H226 lung): 3350 nM
TGI (UACC-62 melanoma): 734 nM
TGI (SK-MEL-2 melanoma): 857 nM
TGI (HCC-2998 colon): 494 nM
TGI (EKVX NSCLC): 987 nM
